ChEMBL document CHEMBL1773026, “Inhalation by design: dual pharmacology β-2 agonists/M3 antagonists for the treatment of COPD” (Bioorg Med Chem Lett, 2011)

Key:
[1] = target: T1, Beta-2 adrenergic receptor (Homo sapiens, UniProt P07550); test: Ratio of EC50 for human beta2 adrenergic receptor by unwashed assay to EC50 for human beta2 adrenergic receptor expressed in CHO cells by wash-off assay; format: cell-based
Target sequence in this assay (P07550 whole entry, looked up): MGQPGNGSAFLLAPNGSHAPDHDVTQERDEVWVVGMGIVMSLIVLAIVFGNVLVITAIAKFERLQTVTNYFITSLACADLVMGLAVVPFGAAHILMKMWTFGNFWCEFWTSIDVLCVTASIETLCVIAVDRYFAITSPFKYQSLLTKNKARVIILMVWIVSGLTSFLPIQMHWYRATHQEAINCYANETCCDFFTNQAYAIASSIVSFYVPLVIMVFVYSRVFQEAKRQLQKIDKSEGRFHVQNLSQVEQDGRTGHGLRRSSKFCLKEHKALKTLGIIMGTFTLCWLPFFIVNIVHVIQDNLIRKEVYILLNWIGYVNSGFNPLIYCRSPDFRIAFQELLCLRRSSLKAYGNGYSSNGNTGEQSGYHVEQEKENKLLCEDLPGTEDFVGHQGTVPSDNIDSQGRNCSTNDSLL

[2] = target: T2, Muscarinic acetylcholine receptor M3 (Homo sapiens, UniProt P20309); test: Displacement of [3H]N-methyl Scopolamine from human muscarinic M3 receptor expressed in CHO cells by scintillation proximity assay; format: cell-based
Target sequence in this assay (P20309 whole entry): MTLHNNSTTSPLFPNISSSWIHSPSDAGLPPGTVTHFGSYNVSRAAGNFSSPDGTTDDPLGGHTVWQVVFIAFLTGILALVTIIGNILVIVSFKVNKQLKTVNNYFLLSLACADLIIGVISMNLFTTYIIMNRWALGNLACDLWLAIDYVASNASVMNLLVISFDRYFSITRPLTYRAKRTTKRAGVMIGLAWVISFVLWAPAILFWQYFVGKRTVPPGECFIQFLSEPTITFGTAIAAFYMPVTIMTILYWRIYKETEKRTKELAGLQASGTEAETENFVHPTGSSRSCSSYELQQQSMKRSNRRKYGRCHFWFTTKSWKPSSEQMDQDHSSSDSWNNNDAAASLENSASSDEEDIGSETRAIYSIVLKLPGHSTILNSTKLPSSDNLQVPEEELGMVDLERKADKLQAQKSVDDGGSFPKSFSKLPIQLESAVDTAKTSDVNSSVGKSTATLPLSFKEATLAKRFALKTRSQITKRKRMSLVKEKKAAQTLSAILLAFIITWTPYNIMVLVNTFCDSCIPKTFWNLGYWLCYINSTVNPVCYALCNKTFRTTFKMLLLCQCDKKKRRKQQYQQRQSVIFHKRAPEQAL

[3] = target: T1, Beta-2 adrenergic receptor; test: Agonist activity at human beta2 adrenergic receptor expressed in CHO cells assessed as stimulation of intracellular cAMP production after 30 mins of washing by wash-off assay; format: functional, cell-based
Target sequence in this assay (P07550 whole entry): as the sequence (P07550 whole entry, looked up) above

[4] = target: T2, Muscarinic acetylcholine receptor M3; test: Displacement of [3H]NMS from human muscarinic M3 receptor expressed in CHO cells assessed as time required to reach 50% of total [3H]NMS binding by dilution-offset methodology; format: cell-based
Target sequence in this assay (P20309 whole entry, looked up): as the sequence (P20309 whole entry) above

[5] = Clearance in human liver microsomes; format: ADME, Microsome
[6] = target: Beta-2 adrenergic receptor (Cavia porcellus, UniProt Q8K4Z4); test: Agonist activity at adrenergic beta2 receptor in guinea pig trachea assessed as bronchorelaxation activity against histamine-induced contraction; format: functional
[7] = target: Muscarinic acetylcholine receptor M3 (Cavia porcellus, UniProt Q8VH26); test: […] activity at muscarinic M3 receptor in guinea pig trachea assessed as bronchorelaxation activity in presence of propranolol; format: functional, tissue-based
[8] = AUC in rat at 2 mg/kg, iv; format: ADME, organism-based; design: dose 2 mg/kg, route intravenous; settings: plasma
[9] = Clearance in rat at 2 mg/kg, iv; format: ADME, organism-based; design: dose 2 mg/kg, route intravenous; settings: in vivo
[10] = Bronchodilatory activity against electrically-stimulated contraction in guinea pig trachea assessed as concentration required for 50% bronchorelaxation activity; format: functional, tissue-based, Cavia porcellus
[11] = Bronchodilatory activity against electrically-stimulated contraction in guinea pig trachea assessed as time taken for inducing 50% maximum relaxant effect; format: functional, Cavia porcellus
[12] = target: Muscarinic acetylcholine receptor M3 (Cavia porcellus) (UniProt Q8VH26); test: […] activity at muscarinic M3 receptor in guinea pig trachea assessed as time taken for inducing bronchorelaxation activity in presence of propranolol; format: functional, tissue-based
Canis familiaris [13] = organism: Canis familiaris; test: Inhibition of methacholine-induced bronchoconstriction in dog; format: functional, Canis lupus familiaris
[14] = Oral bioavailability in human; format: ADME, organism-based; settings: in vivo
Canis familiaris [15] = organism: Canis familiaris; test: Inhibition of methacholine-induced bronchoconstriction in dog assessed as duration action at 30 ug, it; format: functional, Canis lupus familiaris

Beta-2 adrenergic receptor (Cavia porcellus, UniProt Q8K4Z4), sequence (Q8K4Z4 whole entry): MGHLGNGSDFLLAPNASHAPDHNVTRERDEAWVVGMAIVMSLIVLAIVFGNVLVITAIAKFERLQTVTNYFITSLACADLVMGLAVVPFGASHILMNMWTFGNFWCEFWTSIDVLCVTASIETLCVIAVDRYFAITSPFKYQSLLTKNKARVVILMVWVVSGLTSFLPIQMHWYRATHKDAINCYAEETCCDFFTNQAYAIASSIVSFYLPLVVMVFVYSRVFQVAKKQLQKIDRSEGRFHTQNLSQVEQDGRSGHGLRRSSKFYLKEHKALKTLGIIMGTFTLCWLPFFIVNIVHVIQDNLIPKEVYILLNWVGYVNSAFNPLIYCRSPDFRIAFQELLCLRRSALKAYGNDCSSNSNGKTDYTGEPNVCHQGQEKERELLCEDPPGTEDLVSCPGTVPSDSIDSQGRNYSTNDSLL
Muscarinic acetylcholine receptor M3 (Cavia porcellus, UniProt Q8VH26), sequence (Q8VH26 whole entry): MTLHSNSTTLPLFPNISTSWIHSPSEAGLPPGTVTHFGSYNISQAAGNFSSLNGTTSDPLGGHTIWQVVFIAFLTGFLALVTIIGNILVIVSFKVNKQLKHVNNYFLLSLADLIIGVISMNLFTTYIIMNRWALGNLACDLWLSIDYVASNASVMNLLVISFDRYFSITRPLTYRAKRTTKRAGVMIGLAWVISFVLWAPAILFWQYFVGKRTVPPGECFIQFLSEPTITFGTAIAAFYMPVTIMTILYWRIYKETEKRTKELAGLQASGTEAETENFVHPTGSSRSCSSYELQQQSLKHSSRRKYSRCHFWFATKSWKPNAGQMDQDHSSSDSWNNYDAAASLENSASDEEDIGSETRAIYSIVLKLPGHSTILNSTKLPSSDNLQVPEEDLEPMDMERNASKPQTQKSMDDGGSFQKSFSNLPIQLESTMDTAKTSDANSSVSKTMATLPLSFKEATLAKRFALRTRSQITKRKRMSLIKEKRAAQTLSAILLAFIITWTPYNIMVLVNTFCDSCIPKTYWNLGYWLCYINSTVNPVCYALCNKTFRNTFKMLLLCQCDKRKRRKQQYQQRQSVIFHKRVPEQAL
Muscarinic acetylcholine receptor M3 (Cavia porcellus), sequence (Q8VH26 1-587): as the sequence (Q8VH26 whole entry) above

Row | Ratio EC50 [1] | Ki [2] | EC50 [3] | TIME [4] | microsomal CLint [5] | Structure (SMILES) | EC50 [6] | EC50 [7] | AUC [8] | clearance [9] | EC50 [10] | Time [11] | TIME [12] | ED50 (Canis familiaris [13]) | bioavailability [14] | Time (Canis familiaris [15])
1 | 19 | 6.1 nM | 10 nM | < 0.25 h | – | CC(C)N(CC[C@H](c1ccccc1)c1cc(CCNC[C@H](O)c2ccc(O)c(NS(C)(=O)=O)c2)ccc1O)C(C)C | – | – | – | – | – | – | – | – | – | –
2 | 7.3 | 1.45 nM | 116 nM | – | 87 µL/min/mg | CC(C)N(CC[C@H](c1ccccc1)c1cc(CCCNC(=O)CCCCCCCCCCNC[C@H](O)c2ccc(O)c(NS(C)(=O)=O)c2)ccc1O)C(C)C | – | – | – | – | – | – | – | – | – | –
3 | 0.7 | 0.99 nM | 5.7 nM | > 20 h | 57 µL/min/mg | CC(C)N(CC[C@H](c1ccccc1)c1cc(CCCCOCCCCCCNC[C@H](O)c2ccc(O)c(NS(C)(=O)=O)c2)ccc1O)C(C)C | – | – | – | – | – | – | – | – | – | –
4 | 2.9 | – | 1.1 nM | – | > 440 µL/min/mg | C[C@H](Cc1cccc(CC(=O)NCc2ccc(Cl)c(Cl)c2)c1)NC[C@H](O)c1ccc(O)c(CO)c1 | – | – | – | – | – | – | – | – | – | –
5 | 1.9 | 0.634 nM | 13 nM | > 20 h | 67 µL/min/mg | CC(C)N(CC[C@H](c1ccccc1)c1cc(CCCCOc2ccc(CCNC[C@H](O)c3ccc(O)c(NS(C)(=O)=O)c3)cc2)ccc1O)C(C)C | – | – | – | – | – | – | – | – | – | –
6 | 1.1 | 0.276 nM | 8.1 nM | 2.77 h | 109 µL/min/mg | CC(C)N(CC[C@H](c1ccccc1)c1cc(CCCNC(=O)Cc2cccc(CC(C)(C)NC[C@H](O)c3ccc(O)c(NS(C)(=O)=O)c3)c2)ccc1O)C(C)C | 2.1 nM | 5.3 nM | – | – | 1.3 nM | >6.5 h | 4.8 h | – | – | –
7 | 2.8 | 0.091 nM | 17 nM | 5.92 h | 263 µL/min/mg | CC(C)N(CC[C@H](c1ccccc1)c1cc(CCCNC(=O)Cc2cccc(CC(C)(C)NC[C@H](O)c3ccc(O)c(CO)c3)c2)ccc1O)C(C)C | – | – | – | – | – | – | – | – | – | –
8 | 2.6 | 0.765 nM | 129 nM | > 20 h | 54 µL/min/mg | CC(C)N(CC[C@H](c1ccccc1)c1cc(CCCCOc2ccc(CCNC[C@H](O)c3ccc(O)c(CO)c3)cc2)ccc1O)C(C)C | – | – | – | – | – | – | – | – | – | –
9 | – | 4.7 nM | 173 nM | – | – | CC(C)N(CC[C@H](c1ccccc1)c1cc(CCCCOc2ccc(CCNC[C@H](O)c3ccc(O)c(O)c3)cc2)ccc1O)C(C)C | – | – | – | – | – | – | – | – | – | –
10 | 0.7 | 0.397 nM | 15 nM | 2.25 h | > 440 µL/min/mg | CC(C)N(CC[C@H](c1ccccc1)c1cc(CCCNC(=O)Cc2cccc(C[C@@H](C)NC[C@H](O)c3cc(O)cc(O)c3)c2)ccc1O)C(C)C | – | – | – | – | – | – | – | – | – | –

Row | Structure (SMILES) | Ratio EC50 [1] | Ki [2] | EC50 [3] | TIME [4] | microsomal CLint [5] | EC50 [6] | EC50 [7] | AUC [8] | clearance [9] | EC50 [10] | Time [11] | TIME [12] | ED50 (Canis familiaris [13]) | bioavailability [14] | Time (Canis familiaris [15])
11 | CC(C)N(CC[C@H](c1ccccc1)c1cc(CCCCOc2ccc(CCNC[C@H](O)c3ccc(O)c4[nH]c(=O)ccc34)cc2)ccc1O)C(C)C | 1.1 | 0.305 nM | 2.4 nM | > 20 h | 74 µL/min/mg | 4 nM | 4 nM | 2670 ng·h/mL | 12.6 mL/min/kg | 4.1 nM | >7.7 h | > 10 h | 30 µg | < 5% | >16 h
12 | Cc1ccc(O)c([C@H](CCN(C(C)C)C(C)C)c2ccccc2)c1 [TOLTERODINE] | – | – | – | < 0.25 h | 163 µL/min/mg | – | – | – | – | – | – | – | – | – | –
